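Growth conditions: 96-well plates. Treatment: test compound, 48 hours, 5 concentrations. Analysis: linear interpolation between bracketing concentrations; unreached endpoints set to highest concentration. Abbreviation: GI50, concentration required for 50% inhibition of growth.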 The source made the active and inactive calls. No stated cut-off is given here; in the data, active = GI50 up to about 1.1 µM and inactive = higher.
Key:
Assay in all cases: inhibition of tumour cell growth, NCI panel, 48 h
A498 = tested on: A498
COLO 205 = tested on: COLO 205
HCC 2998 = tested on: HCC 2998
HOP-92 = tested on: HOP-92
IGROV-1 = tested on: IGROV-1
K562 = tested on: K562
MOLT-4 = tested on: MOLT-4
NCI-H23 = tested on: NCI-H23
NCI/ADR-RES = tested on: NCI/ADR-RES
OVCAR-5 = tested on: OVCAR-5
OVCAR-8 = tested on: OVCAR-8
RPMI-8226 = tested on: RPMI-8226
RXF 393 = tested on: RXF 393
SF-295 = tested on: SF-295
SF-539 = tested on: SF-539
SN12C = tested on: SN12C
SNB-75 = tested on: SNB-75
SR = tested on: SR
T47D = tested on: T47D
TK-10 = tested on: TK-10

| Structure (SMILES) | GI50 (A498) | GI50 (COLO 205) | GI50 (HCC 2998) | GI50 (HOP-92) | GI50 (IGROV-1) | GI50 (K562) | GI50 (MOLT-4) | GI50 (NCI-H23) | GI50 (NCI/ADR-RES) | GI50 (OVCAR-5) | GI50 (OVCAR-8) | GI50 (RPMI-8226) | GI50 (RXF 393) | GI50 (SF-295) | GI50 (SF-539) | GI50 (SN12C) | GI50 (SNB-75) | GI50 (SR) | GI50 (T47D) | GI50 (TK-10) |
| --- | --- | --- | --- | --- | --- | --- | --- | --- | --- | --- | --- | --- | --- | --- | --- | --- | --- | --- | --- | --- |
| CCOC(=O)C1C(=O)CC(O)(c2ccccc2)C(C(=O)OCC)C1c1ccc(N(C)C)cc1 (stereo not drawn) | 31.6 µM (inactive) | 17.6 µM (inactive) | 34.4 µM (inactive) | 19.7 µM (inactive) | 31.2 µM (inactive) | 6.21 µM (inactive) | 23.5 µM (inactive) | > 45.7 µM (inactive) | 26.6 µM (inactive) | 74.3 µM (inactive) | 20 µM (inactive) | 13.3 µM (inactive) | 14.7 µM (inactive) | 5.71 µM (inactive) | 18.1 µM (inactive) | 50.2 µM (inactive) | 24.9 µM (inactive) | 7.33 µM (inactive) | 27.6 µM (inactive) | > 59.8 µM (inactive) |
| CC1CC[C@@]2(OC1)OC1C[C@H]3[C@@H]4CC[C@H]5CC(OC6OC(CO)C(OC7OC(CO)C(O)C(O)C7O)C(O)C6O)CCC5(C)[C@H]4CCC3(C)C1[C@@H]2C (stereo partly drawn) | 8.65 µM (inactive) | 6.89 µM (inactive) | 5.85 µM (inactive) | 8.57 µM (inactive) | 2.52 µM (inactive) | 12.5 µM (inactive) | 9.14 µM (inactive) | 8.81 µM (inactive) | 9.64 µM (inactive) | 8.65 µM (inactive) | 8.45 µM (inactive) | 13.7 µM (inactive) | 10.7 µM (inactive) | 8.55 µM (inactive) | 8.38 µM (inactive) | 7.35 µM (inactive) | 9.93 µM (inactive) | 9.59 µM (inactive) | 9.31 µM (inactive) | 9.64 µM (inactive) |
| COc1cc(/C=C2/SC(c3ccccc3)N(c3ccc(Cl)cc3)C2=O)cc(OC)c1OC (stereo not drawn) | > 80 µM (inactive) | 1.3 µM (inactive) | > 100 µM (inactive) | > 100 µM (inactive) | > 100 µM (inactive) | 0.244 µM (active) | 15.7 µM (inactive) | 17.9 µM (inactive) | 25.9 µM (inactive) | > 100 µM (inactive) | > 100 µM (inactive) | 2.99 µM (inactive) | 49.7 µM (inactive) | 3.27 µM (inactive) | > 100 µM (inactive) | > 32 µM (inactive) | 95.3 µM (inactive) | 7.6 µM (inactive) | 3.94 µM (inactive) | > 100 µM (inactive) |
| NC1=Nc2cc(C(F)(F)F)ccc2Sc2nc3ccccc3n21 | > 45.5 µM (inactive) | > 21.2 µM (inactive) | > 94.8 µM (inactive) | 7.6 µM (inactive) | > 25.7 µM (inactive) | 5.75 µM (inactive) | 4.24 µM (inactive) | 31.3 µM (inactive) | > 100 µM (inactive) | > 52.8 µM (inactive) | 12.5 µM (inactive) | 6.25 µM (inactive) | > 53.5 µM (inactive) | > 57.9 µM (inactive) | > 46.5 µM (inactive) | 57.5 µM (inactive) | 19.9 µM (inactive) | 3.61 µM (inactive) | 26.6 µM (inactive) | > 67 µM (inactive) |
| Sc1nc2c(c(-c3nc(S)nc4c3CCCCCCCCCC4)n1)CCCCCCCCCC2 | > 100 µM (inactive) | > 100 µM (inactive) | > 100 µM (inactive) | > 100 µM (inactive) | > 100 µM (inactive) | > 100 µM (inactive) | > 100 µM (inactive) | > 100 µM (inactive) | > 100 µM (inactive) | > 100 µM (inactive) | > 100 µM (inactive) |  | > 100 µM (inactive) | > 100 µM (inactive) | > 100 µM (inactive) | > 100 µM (inactive) | > 100 µM (inactive) | > 100 µM (inactive) | > 100 µM (inactive) | > 100 µM (inactive) |
| Cn1cc(S(=O)(=O)NC(=O)Nc2ccc(Cl)cc2)c2ccccc21 | > 100 µM (inactive) | 30.3 µM (inactive) | 51.4 µM (inactive) | > 100 µM (inactive) | 13.3 µM (inactive) | > 100 µM (inactive) | > 100 µM (inactive) | > 100 µM (inactive) | 38.6 µM (inactive) | 46.1 µM (inactive) | 82.2 µM (inactive) | > 100 µM (inactive) | > 100 µM (inactive) | 43.6 µM (inactive) | 11.1 µM (inactive) | > 100 µM (inactive) | > 100 µM (inactive) | > 100 µM (inactive) | 28.6 µM (inactive) | 21.4 µM (inactive) |
| Nc1ccc2c(=O)cc(-c3cccs3)[nH]c2n1 | > 37.8 µM (inactive) | 0.716 µM (active) | 2.19 µM (inactive) | 9.1 µM (inactive) | 2.64 µM (inactive) | 0.847 µM (active) | 1.51 µM (inactive) | 2.89 µM (inactive) | 1.06 µM (active) | 15.3 µM (inactive) | 2.86 µM (inactive) | 1.54 µM (inactive) | 4.17 µM (inactive) | 3.1 µM (inactive) | 1.48 µM (inactive) | 5.16 µM (inactive) | 2.46 µM (inactive) | 0.151 µM (active) | 3.13 µM (inactive) | 7.13 µM (inactive) |
| c1ccc2c(C3CCN(CCN4CCOCC4)C3)c[nH]c2c1 (stereo not drawn) | > 100 µM (inactive) |  | 47 µM (inactive) | > 100 µM (inactive) | > 100 µM (inactive) | > 100 µM (inactive) |  | > 100 µM (inactive) | > 100 µM (inactive) | > 100 µM (inactive) | > 100 µM (inactive) | > 100 µM (inactive) | > 100 µM (inactive) | > 100 µM (inactive) |  | > 100 µM (inactive) | > 100 µM (inactive) | > 100 µM (inactive) | > 100 µM (inactive) | > 100 µM (inactive) |
| CC(C)C(C/C=C1\CC(CO)(COC(=O)c2ccccc2)OC1=O)C(C)C (stereo not drawn) | 21.3 µM (inactive) | 11.5 µM (inactive) | 22.4 µM (inactive) | 13.4 µM (inactive) | 20.7 µM (inactive) | 12 µM (inactive) | 18.2 µM (inactive) | 20.2 µM (inactive) | 20.7 µM (inactive) | 14.3 µM (inactive) | 19.2 µM (inactive) |  | 23 µM (inactive) | 14.5 µM (inactive) |  | 17.2 µM (inactive) | 15.3 µM (inactive) | 32.2 µM (inactive) | 93.8 µM (inactive) | 19 µM (inactive) |
| CSC1=Nc2ccccc2-c2nc3ccccc3cc2C1 | > 100 µM (inactive) | > 100 µM (inactive) | > 100 µM (inactive) | > 100 µM (inactive) | > 100 µM (inactive) | > 100 µM (inactive) | > 100 µM (inactive) | > 100 µM (inactive) | > 100 µM (inactive) | > 100 µM (inactive) | > 100 µM (inactive) |  | > 100 µM (inactive) | > 100 µM (inactive) | > 100 µM (inactive) | > 100 µM (inactive) |  | 29.9 µM (inactive) | 25.9 µM (inactive) | > 100 µM (inactive) |
| COc1ccc2c(c1)CCCN1CCc3ccccc3C21 (stereo not drawn) | 55.3 µM (inactive) | 22.4 µM (inactive) | 69 µM (inactive) | 37.2 µM (inactive) | 50 µM (inactive) | 45.7 µM (inactive) | 80.4 µM (inactive) | 35.7 µM (inactive) | 16.8 µM (inactive) | 70.3 µM (inactive) | 39.9 µM (inactive) |  | 25.9 µM (inactive) | 24.7 µM (inactive) | 28.6 µM (inactive) | 23.3 µM (inactive) | 16.4 µM (inactive) | 20 µM (inactive) | 77.3 µM (inactive) | 43.1 µM (inactive) |
| CC(C)(C)N/N=C(/Cc1nc2c3c(ccc2nc1O)C(=O)c1ccccc1C3=O)C(=O)NC1=C(Cl)C(=O)c2ccccc2C1=O | 88.9 µM (inactive) | 24 µM (inactive) | 17.9 µM (inactive) | 31.6 µM (inactive) | 5.14 µM (inactive) | 85.3 µM (inactive) | 23.2 µM (inactive) | 42.1 µM (inactive) | 5.77 µM (inactive) | > 100 µM (inactive) | 10 µM (inactive) | 78.9 µM (inactive) | 6.18 µM (inactive) | 39.4 µM (inactive) | 21 µM (inactive) | 17 µM (inactive) | 2.38 µM (inactive) | 27.7 µM (inactive) | 23.3 µM (inactive) |  |
| CC(C)(C)c1ccc(C(C)(C)C)c(N2C(=O)[C@@H]3[C@@H]4C=C[C@@H](C4)[C@]3(C)C2=O)c1 | 16.5 µM (inactive) | 42.2 µM (inactive) | 15.5 µM (inactive) | 0.869 µM (active) | 18.6 µM (inactive) | 26.8 µM (inactive) | 14.9 µM (inactive) | 45.1 µM (inactive) | 29.6 µM (inactive) | 86.5 µM (inactive) | 14.6 µM (inactive) | 14.7 µM (inactive) | 15.5 µM (inactive) | 27.7 µM (inactive) | 51.5 µM (inactive) | 20.1 µM (inactive) |  | 5.2 µM (inactive) | 18.4 µM (inactive) | 35 µM (inactive) |
| O=C(O)CSc1nnc(CCCCCCCCc2nnc(SCC(=O)O)o2)o1 | > 100 µM (inactive) | > 100 µM (inactive) | > 100 µM (inactive) | 79.8 µM (inactive) | > 100 µM (inactive) | > 100 µM (inactive) | > 100 µM (inactive) | > 100 µM (inactive) | > 100 µM (inactive) | > 100 µM (inactive) | 55.5 µM (inactive) | > 100 µM (inactive) | 38.5 µM (inactive) | > 100 µM (inactive) |  | > 100 µM (inactive) | 21.9 µM (inactive) | > 100 µM (inactive) | > 100 µM (inactive) | > 100 µM (inactive) |

— ChEMBL document CHEMBL1201862, “PubChem BioAssay data set” (2004)
